Measurements as given in patent publication US8143243B2, “Compounds for the treatment of hepatitis C” (Bristol-Myers Squibb Company, priority 2007, dated 2012).
Read-outs that look alike come from different tables or passages of the source.

What was measured:
HCV NS5B = target: T1, HCV NS5B (Hepatitis C virus genotype 1b, UniProt Q9WMX2); assay: HCV NS5B RdRp enzyme assay (standard / modified); assay type: biochemical
T1 construct: The protein was expressed with an 18 amino acid C-terminal truncation to enhance the solubility; made in house; host or cells: E. coli BL21 (DE3)
T1 sequence (Q9WMX2 2420-2992): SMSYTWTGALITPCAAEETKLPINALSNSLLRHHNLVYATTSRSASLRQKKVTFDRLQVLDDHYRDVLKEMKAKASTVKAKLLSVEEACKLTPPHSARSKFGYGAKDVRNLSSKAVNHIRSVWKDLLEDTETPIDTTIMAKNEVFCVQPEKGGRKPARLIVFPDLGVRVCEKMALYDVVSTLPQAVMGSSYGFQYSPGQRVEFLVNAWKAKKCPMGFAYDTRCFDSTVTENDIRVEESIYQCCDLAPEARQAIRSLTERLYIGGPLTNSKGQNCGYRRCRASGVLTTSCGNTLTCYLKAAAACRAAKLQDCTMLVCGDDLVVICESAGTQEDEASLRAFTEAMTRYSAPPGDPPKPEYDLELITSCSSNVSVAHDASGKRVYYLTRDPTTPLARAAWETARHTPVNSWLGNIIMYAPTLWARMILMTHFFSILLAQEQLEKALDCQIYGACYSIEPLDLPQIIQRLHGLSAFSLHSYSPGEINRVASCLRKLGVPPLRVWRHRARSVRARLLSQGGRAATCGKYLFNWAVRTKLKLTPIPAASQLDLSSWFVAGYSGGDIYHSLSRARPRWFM
Method: HCV NS5B RdRp cloning, expression, and purification. The cDNA encoding the NS5B protein of HCV, genotype 1b, was cloned into the pET21a expression vector. The protein was expressed with an 18 amino acid C-terminal truncation to enhance the solubility. The E. coli competent cell line BL21 (DE3) was used for expression of the protein. Cultures were grown at 37° C. for ˜4 hours until the cultures reached an optical density of 2.0 at 600 nm. The cultures were cooled to 20° C. and induced with 1 mM IPTG. Fresh ampicillin was added to a final concentration of 50 μg/ml and the cells were grown overnight at 20° C.
Cell pellets (3 L) were lysed for purification to yield 15-24 mgs of purified NS5B. The lysis buffer consisted of 20 mM Tris-HCl, pH 7.4, 500 mM NaCl, 0.5% triton X-100, 1 mM DTT, 1 mM EDTA, 20% glycerol, 0.5 mg/ml lysozyme, 10 mM MgCl2, 15 ug/ml deoxyribonuclease I, and Complete TM protease inhibitor tablets (Roche). After addition of the lysis buffer, frozen cell pellets were resuspended using a tissue homogenizer. To reduce the viscosity of the sample, aliquots of the lysate were sonicated on ice using a microtip attached to a Branson sonicator. The sonicated lysate was centrifuged at 100,000×g for 1 hr at 4° C. and filtered through a 0.2 μm filter unit (Corning).
The protein was purified using three sequential chromatography steps: Heparin sepharose CL-6B, polyU sepharose 4B, and Hitrap SP sepharose (Pharmacia). The chromatography buffers were identical to the lysis buffer but contained no lysozyme, deoxyribonuclease I, MgCl2 or protease inhibitor and the NaCl concentration of the buffer was adjusted according to the requirements for charging the protein onto the column. Each column was eluted with a NaCl gradient which varied in length from 5-50 column volumes depending on the column type. After the final chromatography step, the resulting purity of the enzyme is >90% based on SDS-PAGE analysis. The enzyme was aliquoted and stored at −80° C.
Standard HCV NS5B RdRp enzyme assay. HCV RdRp genotype 1b assays were run in a final volume of 60 μl in 96 well plates (Costar 3912). The assay buffer is composed of 20 mM Hepes, pH 7.5, 2.5 mM KCl, 2.5 mM MgCl2, 1 mM DTT, 1.6 U RNAse inhibitor (Promega N2515), 0.1 mg/ml BSA (Promega R3961), and 2% glycerol. All compounds were serially diluted (3-fold) in DMSO and diluted further in water such that the final concentration of DMSO in the assay was 2%. HCV RdRp genotype 1b enzyme was used at a final concentration of 28 nM. A polyA template was used at 6 nM, and a biotinylated oligo-dT12 primer was used at 180 nM final concentration. Template was obtained commercially (Amersham 27-4110). Biotinylated primer was prepared by Sigma Genosys. 3H-UTP was used at 0.6 μCi (0.29 μM total UTP). Reactions were initiated by the addition of enzyme, incubated at 30° C. for 60 min, and stopped by adding 25 μl of 50 mM EDTA containing SPA beads (4 μg/μl, Amersham RPNQ 0007). Plates were read on a Packard Top Count NXT after >1 hr incubation at room temperature.
Modified HCV NS5B RdRp enzyme assay. A modified enzyme assay was performed essentially as described for the standard enzyme assay except for the following: The biotinylated oligo dT12 primer was precaptured on streptavidin-coated SPA beads by mixing primer and beads in assay buffer and incubating at room temperature for one hour. Unbound primer was removed after centrifugation. The primer-bound beads were resuspended in 20 mM Hepes buffer, pH 7.5 and used in the assay at final concentrations of 20 nM primer and 0.67 μg/μl beads. Order of addition in the assay: enzyme (14 nM) was added to diluted compound followed by the addition of a mixture of template (0.2 nM), 3H-UTP (0.6 μCi, 0.29 μM), and primer-bound beads, to initiate the reaction; concentrations given are final. Reactions were allowed to proceed for 4 hours at 30° C.
IC50 values for compounds were determined using seven different [I]. […]

HCV replicon cells = assay: HCV replicon FRET / luciferase assay; assay type: cell-based; conditions: Hepatitis C virus
From the text: FRET Assay Preparation. To perform the HCV FRET screening assay, 96-well cell culture plates were used. The FRET peptide (Anaspec, Inc.) (Taliani et al., Anal. Biochem. 1996, 240, 60-67) contains a fluorescence donor, EDANS, near one end of the peptide and an acceptor, DABCYL, near the other end. The fluorescence of the peptide is quenched by […] resonance energy transfer (RET) between the donor and the acceptor, but as the NS3 protease cleaves the peptide the products are released from RET quenching and the fluorescence of the donor becomes apparent. The assay reagent was made as follows: 5× cell Luciferase cell culture lysis reagent from Promega (#E153A) diluted to 1× with dH2O, NaCl added to 150 mM final, the FRET peptide diluted to 20 μM final from a 2 mM stock.
To prepare plates, HCV replicon cells, with or without a Renilla luciferase reporter gene, were trypsinized and placed into each well of a 96-well plate with titrated test compounds added in columns 3 through 12; columns 1 and 2 contained a control compound (HCV protease inhibitor), and the bottom row contained cells without compound. The plates were then placed in a CO2 incubator at 37° C.
Assays. Subsequent to addition of the test compounds described above (FRET Assay Preparation), at various times the plate was removed and Alamar blue solution (Trek Diagnostics, #00-100) was added per well as a measure of cellular toxicity. After reading in a Cytoflour 4000 instrument (PE Biosystems), plates were rinsed with PBS and then used for FRET assay by the addition of 30 ul of the FRET peptide assay reagent described above (FRET Assay Preparation) per well. The plate was then placed into the Cytoflour 4000 instrument which had been set to 340 excite/490 emission, automatic mode for 20 cycles and the plate read in a kinetic mode. Typically, the signal to noise using an endpoint analysis after the reads was at least three-fold. Alternatively, after Alamar blue reading, plates were rinsed with PBS, 50 ul of DMEM (high glucose) without phenol red was added and plates were then used for luciferase assay using the Promega Dual-Glo Luciferase Assay System.
Compound analysis was determined by quantification of the relative HCV replicon inhibition and the relative cytotoxicity values. To calculate cytoxicity values, the average Alamar Blue fluorescence signals from the control wells were set as 100% non-toxic. The individual signals in each of the compound test wells were then divided by the average control signal and multiplied by 100% to determine […]. To calculate the HCV replicon inhibition values, an average background value was obtained from the two wells containing the highest amount of HCV protease inhibitor at the end of the assay period. These numbers were similar to those obtained from naïve Huh-7 cells.
The background numbers were then subtracted from the average signal obtained from the control wells and this number was used as 100% activity. The individual signals in each of the compound test wells were then divided by the averaged control values after background subtraction and multiplied by 100% to determine percent activity. EC50 values for a protease inhibitor titration were calculated as the concentration which caused a 50% reduction in FRET or luciferase activity. The two numbers generated for the compound plate, percent cytoxicity and percent activity were used to determine compounds of interest for further analysis.

[1] = HCV RdRp genotype 1b enzyme, read-out: IC50
[2] = HCV replicon cells, FRET or luciferase readout, read-out: EC50

Row | Structure (SMILES) | IC50 (HCV NS5B) | EC50 (HCV replicon cells) | IC50 (HCV NS5B; [1]) | EC50 (HCV replicon cells; [2])
1 | COc1ccc2c(c1)C=C(c1c(C(=O)N3C4COCC3COC4)cnn1C(C)C)Cn1c-2c(C2CCCCC2)c2ccc(C(=O)NS(=O)(=O)C(C)C)cc21 | 1 to 500 nM | 1 to 500 nM |  | 
2 | COc1ccc2c(c1)C=C(c1c(C(=O)O)cnn1C)Cn1c-2c(C2CCCCC2)c2ccc(C(=O)O)cc21 |  |  | 1 to 500 nM | > 40 nM
3 | CCCN1CCN(C(=O)c2ccn(C(C)C)c2C2=Cc3cc(OC)ccc3-c3c(C4CCCCC4)c4ccc(C(=O)NS(=O)(=O)C(C)C)cc4n3C2)CC1 |  |  | 1 to 500 nM | 1 to 500 nM
4 | COc1ccc2c(c1)C=C(c1c(C(=O)N3CCN4CCCC4C3)cnn1C)Cn1c-2c(C2CCCCC2)c2ccc(C(=O)NS(=O)(=O)N3CCOCC3)cc21 (stereo not drawn) |  |  | 1 to 500 nM | 1 to 500 nM
5 | COc1ccc2c(c1)C=C(c1c(C(=O)N3C4CCC3CN(C)C4)c(C(F)(F)F)nn1C)Cn1c-2c(C2CCCCC2)c2ccc(C(=O)NS(=O)(=O)C(C)C)cc21 | 1 to 500 nM | 1 to 500 nM |  | 
6 | COC(=O)c1ncoc1C1=Cc2cc(OC)ccc2-c2c(C3CCCCC3)c3ccc(C(=O)OC(C)(C)C)cc3n2C1 |  |  | > 40 nM | > 40 nM
7 | COc1ccc2c(c1)C=C(c1c(C(=O)N3C[C@@H](C)O[C@@H](C)C3)cnn1C(C)(C)C)Cn1c-2c(C2CCCCC2)c2ccc(C(=O)NS(=O)(=O)C(C)C)cc21 |  |  | 1 to 500 nM | 1 to 500 nM
8 | COc1ccc2c(c1)C=C(c1c(C(=O)N3C4CCC3CN(C)C4)cnn1C)Cn1c-2c(C2CCCCC2)c2ccc(C(=O)NS(=O)(=O)N(C)C)cc21 | 1 to 500 nM | 1 to 500 nM |  | 
9 | CCC(C)S(=O)(=O)NC(=O)c1ccc2c(C3CCCCC3)c3n(c2c1)CC(c1c(C(=O)N2CC(C)N(C)C(C)C2)cnn1C)=Cc1cc(OC)ccc1-3 (stereo not drawn) |  |  | 1 to 500 nM | 1 to 500 nM
10 | COc1ccc2c(c1)C=C(c1c(C(=O)N3CCOCC3)c(C)nn1C)Cn1c-2c(C2CCCCC2)c2ccc(C(=O)NS(=O)(=O)N(C)C)cc21 |  |  | 1 to 500 nM | 1 to 500 nM
11 | CCn1ncc(C(=O)N2CCN(C)CC2)c1C1=Cc2cc(OC)ccc2-c2c(C3CCCCC3)c3ccc(C(=O)NS(=O)(=O)N(C)C)cc3n2C1 |  |  | 1 to 500 nM | 1 to 500 nM
12 | COc1ccc2c(c1)C=C(c1c(C(=O)N3C4CCC3CN(C)C4)ccn1C(C)C)Cn1c-2c(C2CCCCC2)c2ccc(C(=O)NS(=O)(=O)C(C)C)cc21 | 1 to 500 nM | 1 to 500 nM |  | 
13 | COc1ccc2c(c1)C=C(c1c(C(=O)N3C4CCCC3COC4)cnn1C)Cn1c-2c(C2CCCCC2)c2ccc(C(=O)NS(=O)(=O)C3CCC3)cc21 | 1 to 500 nM | 1 to 500 nM |  | 
14 | CCn1ncc(C(=O)N2CCOCC2)c1C1=Cc2cc(OC)ccc2-c2c(C3CCCCC3)c3ccc(C(=O)NS(=O)(=O)N4CCCC4)cc3n2C1 |  |  | 1 to 500 nM | 1 to 500 nM
15 | COc1ccc2c(c1)C=C(c1c(C(=O)N3C[C@@H](C)N(C)[C@@H](C)C3)cnn1C)Cn1c-2c(C2CCCCC2)c2ccc(C(=O)NS(=O)(=O)C(C)C)cc21 |  |  | 1 to 500 nM | 1 to 500 nM
16 | COc1ccc2c(c1)C=C(c1c(C(=O)N3CC4CCC(C3)O4)c(C(F)(F)F)nn1C)Cn1c-2c(C2CCCCC2)c2ccc(C(=O)NS(=O)(=O)C(C)C)cc21 |  |  | 1 to 500 nM | 1 to 500 nM
17 | COc1ccc2c(c1)C=C(c1ocnc1C(=O)N1CCOCC1)Cn1c-2c(C2CCCCC2)c2ccc(C(=O)O)cc21 |  |  | 1 to 500 nM | 1 to 500 nM
18 | COc1ccc2c(c1)C=C(c1c(C(=O)N3C4CCCC3COC4)cnn1CC(F)(F)F)Cn1c-2c(C2CCCCC2)c2ccc(C(=O)NS(=O)(=O)C(C)C)cc21 | 1 to 500 nM | 1 to 500 nM |  | 
19 | COc1ccc2c(c1)C=C(c1c(C(=O)N3CCC(N4CCCC4)CC3)cnn1C)Cn1c-2c(C2CCCCC2)c2ccc(C(=O)NS(=O)(=O)N3CCOCC3)cc21 |  |  | 1 to 500 nM | > 500 nM
20 | COc1ccc2c(c1)C=C(c1c(C(=O)N3C4CCC3CN(C)C4)c(C)nn1C)Cn1c-2c(C2CCCCC2)c2ccc(C(=O)NS(=O)(=O)C(C)C)cc21 | 1 to 500 nM | 1 to 500 nM |  | 
21 | COC[C@@H]1CN(C(=O)c2cnn(C)c2C2=Cc3cc(OC)ccc3-c3c(C4CCCCC4)c4ccc(C(=O)NS(=O)(=O)C(C)C)cc4n3C2)CCO1 |  |  | 1 to 500 nM | 1 to 500 nM
22 | COC(=O)c1c(C)nn(C)c1C1=Cc2cc(OC)ccc2-c2c(C3CCCCC3)c3ccc(C(=O)O)cc3n2C1 |  |  | 1 to 500 nM | 1 to 500 nM
23 | COc1ccc2c(c1)C=C(c1c(C(=O)N3CCCC(N(C)C)C3)cnn1C)Cn1c-2c(C2CCCCC2)c2ccc(C(=O)NS(=O)(=O)C3CCC3)cc21 (stereo not drawn) |  |  | 1 to 500 nM | 1 to 500 nM
24 | COc1ccc2c(c1)C=C(c1c(C(=O)N3CC4CCC(C3)O4)cnn1C(C)C)Cn1c-2c(C2CCCCC2)c2ccc(C(=O)NS(=O)(=O)C(C)C)cc21 |  |  | 1 to 500 nM | 1 to 500 nM
25 | COc1ccc2c(c1)C=C(c1c(C(=O)N3C4CCCC3COC4)cnn1C)Cn1c-2c(C2CCCCC2)c2ccc(C(=O)NS(=O)(=O)C3CCCC3)cc21 | 1 to 500 nM | 1 to 500 nM |  | 
26 | COc1ccc2c(c1)C=C(c1c(C(=O)N3C[C@@H](C)N(C)[C@@H](C)C3)cnn1C)Cn1c-2c(C2CCCCC2)c2ccc(C(=O)NS(=O)(=O)N3CCOCC3)cc21 |  |  | 1 to 500 nM | 1 to 500 nM
27 | COc1ccc2c(c1)C=C(c1c(C(=O)N3CCOCC3)c(C(F)(F)F)nn1C)Cn1c-2c(C2CCCCC2)c2ccc(C(=O)NS(=O)(=O)C(C)C)cc21 |  |  | < 20 nM | 1 to 500 nM
